Source: article PMC4171606, “A novel copper(I) complex induces ER-stress-mediated apoptosis and sensitizes B-acute lymphoblastic leukemia cells to chemotherapeutic agents” (Oncotarget, 2014)

How the values were obtained:
Format in all cases: cell-based, human
[1] = test system: RS4;11 and SEM cells; assay: Cell cycle distribution by flow cytometry (PI); details: 24 h, different concentrations
Procedure: FIGURE 1 CP uptake and effects on cell cycle and apoptosis induction A) RS4;11, SEM, THP1, Jurkat cell lines and healthy PBMC were incubated with 6.25, 12.5 and 25 μM of CP for 24 h. The intracellular accumulation of CP was detected by GF-AAS analysis. B) SEM and RS4;11 cells were treated with the indicated concentrations of CP for 24 h, cell cycle distribution and Sub-G1 contents were analyzed by flow cytometry after cell staining with PI. The percentages of each phase of the cell cycle (G1, S, G2/M) were calculated on living cells whereas the percentages of cells with hypodiploid DNA content peak (subG1) was referred to cell population characterized by the appearance of subG1 peak. C) SEM and RS4;11 cells were incubated with 2.5 μM CP for the indicated times and analyzed by flow cytometry after double staining with Annexin-V-FITC and PI. Data are represented as mean ± S.E.M. of three independent experiments.
The effects of different concentrations of CP on cell cycle progression were examined in RS4;11 and SEM cells after 24 h of treatment.
5×10^5 RS4;11 and SEM cells in exponential growth were treated with different concentrations of CP for different times. After the incubation, cells were collected, centrifuged and fixed with ice-cold ethanol (70%) and stained with PI as described previously. DNA histograms were analyzed using Multicycle for Windows (Phoenix Flow Systems)

[2] = test system: GRP78; assay: Western blot, ER stress marker GRP78
Procedure: Moreover we found an increase in CHOP expression starting from 3 h of CP treatment. […] Whilst GRP78, due to its chaperon activity, exerts a protective function, CHOP promotes ER-stress cell death, thus the rapid activation of pro-death signals and the late activation of pro-survival chaperone GRP78 could explain the commitment toward apoptosis induced by CP. Moreover, in unresolvable stress conditions, an increased CHOP expression has been correlated to the induction of the expression of many apoptotic genes and to the down-regulation prosurvival genes, such as Bcl-2 [30].
FIGURE 4 CP induces ER stress Western Blot analysis showing expression of GRP78 and CHOP in SEM (A) and in RS4;11 (B) cells. Cells were treated with CP 2.5 μM for the indicated times. (C) PCR analysis showing the induction of XBP1 splicing in SEM and RS4;11 cells. Cells were treated with CP (2.5 μM) or Tunicamycin (2 μg/ml) as positive control for 12 h.
Cells were treated with CP and, after different times, were collected, centrifuged and washed with ice cold phosphate-buffered saline (PBS). The pellet was then resuspended in lysis buffer as described. The protein concentration in the supernatant was determined using the BCA protein assay (Pierce, Italy). […]

[3] = test system: Bcl-2; assay: Western blot, Bcl-2; details: SEM and RS4;11, CP 2.5 μM
Procedure: FIGURE 2 CP induces caspase-dependent apoptosis without mitochondria involvement (A) Assessment of mitochondrial membrane potential (ΔΨmt) after treatment of RS4;11 and SEM cells with CP (2.5 μM) for the indicated times. Cells were stained with the fluorescent probe JC-1. Data are represented as mean ± S.E.M. of three independent experiments. (B) Flow cytometric analysis of RS4;11 and SEM cells treated with CP (2.5 μM) for 24 h showing cytochrome c labeled with a monoclonal antibody conjugated to FITC. Representative image of three experiments with similar results. (C) Cells were incubated with CP 2.5 μM and 5 μM in the presence or absence of the pan-caspase inhibitor z-VAD.fmk (100 μM). Cell viability was determined after 48 h by MTT assay. Data are represented as mean ± S.E.M. of three independent experiments performed in triplicate. *p<0.01 vs CP alone. (D) Western blot analysis of Bcl-2, cleaved caspase-12, caspase-9, cleaved caspase-7, caspase-3 and PARP after treatment of SEM and RS4;11 cells with CP (2.5 μM) for the indicated times. To confirm equal protein loading, each membrane was stripped and reprobed with anti-β-actin antibody. […]
Cells were treated with CP and, after different times, were collected, centrifuged and washed with ice cold phosphate-buffered saline (PBS). […] The protein concentration in the supernatant was determined using the BCA protein assay (Pierce, Italy). […]

Question: Which results are given for `F[P-](F)(F)(F)(F)F.OCP(CO)CO.OCP(CO)CO.OCP(CO)CO.OCP(CO)CO.[Cu+]` [CP, [Cu(thp)4][PF6]]?
Answer: cell population with hypodiploid DNA content peak (subG1) [1]: concentration-dependent increase; effect on cell cycle progression [1]: did not affect cell cycle; time of remarkable increase of GRP78 expression ([2]; RS4;11, CP 2.5 μM): 12 h; time of remarkable increase of GRP78 expression ([2]; SEM, CP 2.5 μM): 6 h; time at which decrease of Bcl-2 expression is detectable [3]: ≥ 3 h
